The source of these data is patent US20250387388A1, “COMPOUND AS TRK INHIBITOR AND/OR RET INHIBITOR AND USE THEREOF” (Medinno Pharmaceutical Technology (Zhuhai) Co., Ltd., priority 2022, published 2025).

For experiment [1], the system named is allergic rhinitis model in mice. The experiment is described as follows: Allergic rhinitis model in mice (OVA). The note with it: nasal drops twice a day, 7-day treatment; MDI-1233 10 mg/kg, MDI-1228 3 mg/kg, MDI-1288 3 mg/kg; fluticasone propionate positive control. Format: in vivo, BALB/C mice. As to the method:
42-49 day-old BALB/C mice (Manufacturer: Liaoning Changsheng Biotechnology Co., Ltd., License Number: SCXK(therapeutic)2015-0001), both male and female, were reared under conventional diet, at a temperature of 20 to 26° C., and a humidity of 40% to 70%. Animal grouping and modeling: • 1. Blank control group (no treatment) • 2. Allergic rhinitis group (vehicle treatment: saline containing 0.2% Tween 80) • 3. Allergic rhinitis+compound MDI-1233: 1 mg/kg • 4. Allergic rhinitis+compound MDI-1233: 3 mg/kg • 5. Allergic rhinitis+compound MDI-1233: 10 mg/kg • 6. Allergic rhinitis+compound MDI-1228: 3 mg/kg • 7. Allergic rhinitis+compound MDI-1288: 3 mg/kg • 8. Allergic rhinitis+positive control group (Fluticasone propionate, GlaxoSmithKline, E88D
The preparation of an AR model in mice involved sensitizing and challenging BALB/c mice with ovalbumin (OVA) to simulate an acute symptoms caused by natural exposure to an allergen. The experimental animals were weighed and separated by gender. Sensitization was performed on days 1, 5, 9, and 12. From day 13, a daily challenge was carried out for 7 consecutive days. After the last challenge, behavior of the mice was observed and scored. The sensitization method involved intraperitoneal injection of an OVA (Sigma, A5503-1G) suspension in 50 μg/ml in which the OVA suspension was prepared by dissolving 500 μg of ovalbumin and 50 mg of AL(OH)3 (CAS 21645-51-2) into 10 ml of normal saline, pH 7.4, with 200 μl injected per mouse. […] On day 12, a single nasal challenge with 10% OVA was performed (PBS was used for the control group). Scoring was conducted according to the table below, using a superposition method to calculate the total score. A total score greater than 5 was considered as successful. Subsequent experiments were conducted after the modeling was deemed successful.
From day 13, compound administration and challenge were conducted. The compound administration method involved calculating the nasal drops volume according to the mouse's body weight and group requirements, and dissolving the compounds MDI-1233, MDI-1228, MDI-1288 into normal saline containing 0.2% Tween 80 at specific concentrations. The administration was given 30 minutes before the challenge, twice a day. The positive control treatment involved administering nasal drop once (10 μl per side) 30 minutes before OVA nasal stimulation, twice a day. Thirty minutes after the second drug administration, a 10% OVA challenge was conducted, and the amount of nasal discharge, sneezing, and nose scratching were observed and recorded within 30 minutes after each challenge and then scored. The control group was treated with normal saline nasal drops.
After the rhinitis modeling was completed and the scores were stable, mice of each group were anesthetized and sacrificed after a 20-day scoring. Samples were collected, and peripheral serum was obtained by collecting whole blood, and standing it at room temperature for 1 hour and then centrifuging it to collect the supernatant for ELISA detection; nasal mucosa was taken for HE staining (fixed with 10% formalin); and the supernatant of nasal lavage fluid was taken for ELISA detection.
(1) HE Staining: The tissue was rinsed with running water for several hours, dehydrated through a series of ethanol solutions (70%, 80%, 90%), and then treated with a mixture of pure alcohol and xylene for 15 minutes, followed by xylene I for 15 minutes and xylene I1 for 15 minutes (until transparent). The tissue was then placed in a mixture of xylene and paraffin at a volume ratio of 1:1 for 15 minutes, followed by immersion with paraffin I and paraffin II each for 50-60 minutes. The tissue was embedded in paraffin and sectioned, and the sections were spreaded, dried, dewaxed and hydrated in distilled water. […]

In experiment [2] the test system is alopecia areata in mice. The experiment is described as follows: Alopecia areata model in mice (imiquimod). Type of experiment: in vivo, C3H/HeJ mice. As to the method: • Blank control group (no treatment) (N=5) • Blank alopecia areata model group (no treatment) (N=8) • Alopecia areata model+blank excipient group (vehicle treatment: blank gel preparation, dose: 1.5 g/kg per mouse, twice daily per mouse) (N=8) • Alopecia areata model+positive control drug group (compound Betamethasone cream (corticosteroid), twice daily, 50 mg each time per mouse) (N=8) • Alopecia areata model+0.5% MDI-1228 compound gel preparation group (dose: 1.0 g/kg per mouse, twice daily per mouse) (N=8) • Alopecia areata model+1% MDI-1228 compound gel preparation group (dose: 1.5 g/kg per mouse, twice daily per mouse) (N=8) • Alopecia areata model+3% MDI-1228 compound gel preparation group (dose: 1.5 g/kg per mouse, twice daily) (N=8) • Blank alopecia areata model (vehicle treatment: 5% DMSO+75% PEG300+20% EtOH) (N=8)
Modeling: Imiquimod cream was applied to the nape of the animals (no hair removal required), three times a week for three consecutive weeks. The control group was treated with a blank excipient without imiquimod. Each time, a clean medical cotton swab was used to apply approximately 0.03 g of imiquimod evenly over an area of about 1 cm×1 cm, and the application site was cleaned with normal saline before each application. The operation was performed gently to avoid skin abrasions or mechanical hair loss due to friction. […] During the modeling, the hair loss of the mice was recorded.
The blank control group (untreated) received no treatment; the drug groups were treated with the corresponding doses of compound betamethasone cream, blank gel preparation, and MDI-1228 compound gel preparation applied to the skin, twice daily (at 9 AM and 5 PM, with an interval of at least 6 hours). Note: To prevent animals from licking the medication off each other, after the gel was applied, the animals were placed individually in a pad-free independent cage to move around for a period of time to allow the gel to air dry for 1 hour before being returned to the normal feeding cage. Single housing is discouraged as it can lead to depression; wrapping the application area with gauze is also prohibited as it can absorb the medication.
During the treatment period, the local changes in the hair loss area of the mice were observed, and the hair growth and adverse reactions were recorded in detail, and scores were assigned according to the following table.
The reagents and instruments required for HE staining included: Hematoxylin staining solution (AR11800-1, BOSTER); Eosin staining solution (AR11800-2, BOSTER); Ultra-clean advanced mounting medium (YZB, BASO); Scott's blueing solution (G1865, Solarbio), etc. Medication refrigerator (BYC-310, Shandong Bokai Biotech); Microscope (CX41 OLYMPUS); Microtome (BQ-318D, Berne); Electric heating blast drying oven (DHG-9070A, Hengke Scientific Instrument Co., Ltd.). The taken tissue was rinsed with running water for several hours, dehydrated through a series of ethanol solutions (70%, 80%, 90%), and then treated with a mixture of pure alcohol and xylene at a ratio of 1:1 for 15 minutes, followed by xylene I for 15 minutes and xylene II for 15 minutes until transparent. The tissue was then placed in a mixture of xylene and paraffin at a ratio of 1:1 for 15 minutes, followed by immersion with paraffin I and paraffin II each for 50-60 minutes. The tissue was embedded in paraffin and sectioned.

Regarding `CCc1cc(O)c(F)cc1-c1ccc2c(-c3nc4c([nH]3)CN(C(=O)N3CC[C@H](O)C3)C4)n[nH]c2c1` [MDI-1228, (S)-(2-(6-(2-ethyl-5-fluoro-4-hydroxyphenyl)-1H-indazol-3-yl)-4,6-dihydropyrrolo[3,4-d]imidazol-5-(1H)-yl)(3-hydroxylpyrrolidin-1-yl)ketone], the Rhinitis behavioral scoring entry in experiment [1] is “did not significantly inhibit the allergic response in male mice”. Besides, the “Skin HE staining (hair follicles)” value in experiment [2] (0.5%, 1%, 3% MDI-1228 gel) was “some therapeutic effect”. Also, in experiment [2] (0.5%, 1%, 3% MDI-1228 gel twice daily, vs. blank gel group), the “Area under the curve (AUC) of hair growth scores” value was “significantly promoted hair growth in alopecia areata animals”. In addition, the “Hair growth scores after 21 days” value in experiment [2] (3% MDI-1228 gel) is reported as “the best effect”; in experiment [2] (all MDI-1228 treatment groups (0.5%, 1%, 3% gel), vs. model group), “significantly higher than the model group”. Further, in experiment [2] (mouse, in vivo), the “Symptoms of alopecia areata (conclusion)” value is recorded as “can improve the symptoms of alopecia areata in mice to a certain extent”.
Take `CCc1cc(O)c(F)cc1-c1ccc2c(-c3nc4c([nH]3)CN(C(=O)NCC(O)CCl)C4)n[nH]c2c1` (stereo not shown) [MDI-1288]: the Rhinitis behavioral scoring entry in experiment [1] is “showed inhibitory effects on both male and female mouse rhinitis models”.
